Reference: ChEMBL document CHEMBL1131537, “Synthesis of [(2'S, 3'S)-bis(hydroxylmethyl)pyrrolidin-1-yl] purine and pyrimidine nucleosides as potential antiviral agents” (Bioorg Med Chem Lett, 1998)
Activity calls are given as the source filed them.

Columns and labels:
Format in all cases: functional, cell-based
MT4 = assay: […] was evaluated against HIV-1 in MT-4 cells at concentration up to 10 ug/mL by indirect immunofluorescence assay; Inactive; conditions: Homo sapiens
Vero [1] = assay: Antiviral activity was evaluated against HSV-1 in Vero cells at concentration up to 10 ug/mL by plaque reduction assay; Inactive; conditions: Chlorocebus sabaeus
Vero [2] = assay: Antiviral activity was evaluated against HSV-2 in Vero cells at concentration up to 10 ug/mL by plaque reduction assay; Inactive; conditions: Chlorocebus sabaeus

Measured: Activity

Cc1cn(N2CC[C@H](CO)[C@H]2CO)c(=O)[nH]c1=O
inactive: MT4 | Vero [1] | Vero [2]

Nc1ncnc2c1ncn2N1CC[C@H](CO)[C@H]1CO
inactive: MT4 | Vero [1] | Vero [2]
